Reference: US10087229B2, “Peptide compound” (TAKEDA PHARMACEUTICAL COMPANY LIMITED, priority 2013, dated 2018)
Square brackets hold non-standard residues; d marks the D form. Peptide text beside a SMILES is read from it. αMeF = C[C@](N)(Cc1ccccc1)C(=O)O; Aib = CC(C)(N)C(=O)O

Tests used:
male C57BL/6J mouse = assay: 2-days continuous subcutaneous administration test (feeding suppressive activity); format: in vivo; details: 10 nmol/kg/day, subcutaneous Alzet pump, 2-days cumulative food consumption, control (solvent alone) = 0%
Experimental: 2-Days Continuous Subcutaneous Administration Test
The feeding suppressive activity of a test compound was examined by the method described below.
The test compound was dissolved in a solvent (50% DMSO) so that sustained release would occur at 10 nmol/kg/day, and the solution was filled in the Alzet Pump (DURECT Corporation, model: 1003D). The pump thus filled with the solution to be administered was immersed in physiological saline for priming, and then used. The pump was embedded by the following method. Each male C57BL/6J mouse at 8-9 weeks of age (20-26° C., allowed to take food and water ad libitum; 12-hour bright-12-hour dark cycle) was anesthetized; the skin in the upper back thereof was incised, and the above-mentioned pump was embedded subcutaneously; the incision was sutured. After weighing, this mouse was returned to the rearing cage (reared alone), and given previously weighed food; food consumption as of 2 days after the start of administration was measured. The food consumption was calculated by subtracting the amount of remaining food from the weight of the food given on the day of the start of administration. When the food consumption of a control group receiving administration of the solvent alone was regarded as a suppression rate of 0%, the feeding suppressive activity of each test compound was evaluated on the basis of 2-days cumulative food consumption after the start of administration. The food intake suppression rate (%) of the test compound was defined as (Food consumption of the control group−Food consumption of the test compound-administered group)/Food consumption of the control group×100.

[1] = system: Diet-induced obesity (DIO) male C57BL/6J mice; assay: 2-weeks continuous subcutaneous administration study in DIO mice (anti-obesity activity); format: in vivo, mouse; details: 1 nmol/kg/day, subcutaneous Alzet pump, 2 weeks after start of administration; rate of weight loss, control group regarded as 0%
Experimental: 2-Weeks Continuous Subcutaneous Administration Study in DIO Mice
The anti-obesity activity of a test compound was examined by the method described below.
Diet-induced obesity (DIO) mice were prepared by feeding male C57BL/6J mice with high-fat diet (D12451: Research Diets, Inc.). The test compound was dissolved in a solvent (50% DMSO) so that sustained release would occur at 1 nmol/kg/day, and the solution was filled in the Alzet Pump (DURECT Corporation, model: 1002). The pump thus filled with the solution to be administered was immersed in physiological saline for priming, and then used. The pump was embedded by the following method. Each male DIO-C57BL/6J mouse at 35-37 weeks of age (20-26° C., allowed to take food and water ad libitum; 12-hour bright-12-hour dark cycle) was anesthetized; the skin in the upper back thereof was incised, and the above-mentioned pump was embedded subcutaneously; the incision was sutured. After weighing, this mouse was returned to the rearing cage (reared alone), and given previously weighed food; the body weight was measured every 1 to 3 days after the start of administration. The anti-obesity activity of each test compound was evaluated on the basis of the rate of weight loss 2 weeks after the start of administration, with the rate of weight loss in a control group receiving administration of the solvent alone regarded as 0%.

Compound | Food intake suppression (%) (male C57BL/6J mouse) | Change in body weight [1]
CC[C@H](C)[C@H](NC(=O)C(C)(C)NC(=O)[C@H](Cc1ccc(O)cc1)NC(=O)[C@H](CC(=O)O)NC(=O)[C@H](CO)NC(=O)[C@@H](NC(=O)[C@](C)(Cc1ccccc1)NC(=O)[C@@H](NC(=O)CNC(=O)[C@H](CCC(=O)O)NC(=O)C(C)(C)NC(=O)[C@@H](N)Cc1ccc(O)cc1)[C@@H](C)O)[C@@H](C)O)C(=O)NC(C)(C)C(=O)N[C@@H](CC(C)C)C(=O)N[C@@H](CC(=O)O)C(=O)N[C@@H](CCCCN)C(=O)N[C@@H](CCC(N)=O)C(=O)N[C@@H](C)C(=O)N[C@@H](CCC(N)=O)C(=O)N[C@@H](C)C(=O)N[C@@H](CCC(=O)O)C(=O)N[C@@H](Cc1ccccc1)C(=O)N[C@H](C(=O)N[C@@H](CCCCN)C(=O)N[C@@H](Cc1c[nH]c2ccccc12)C(=O)N[C@@H](CC(C)C)C(=O)N[C@@H](CC(C)C)C(=O)N[C@@H](CCCCN)C(=O)NCC(=O)NCC(=O)N1CCC[C@H]1C(=O)N[C@@H](CO)C(=O)N[C@@H](CO)C(=O)NCC(=O)N[C@@H](C)C(=O)N1CCC[C@H]1C(=O)N1CCC[C@H]1C(=O)N1CCC[C@H]1C(=O)N[C@@H](CO)C(=O)N[C@@H](CCCCN)C(N)=O)C(C)C [Example 2] (H-Y[Aib]EGT[αMeF]TSDY[Aib]I[Aib]LDKQAQAEFVKWLLKGGPSSGAPPPSK-NH2) | 64.80% | −16.3
CC(C)C[C@H](NC(=O)[C@H](CC(C)C)NC(=O)[C@H](Cc1c[nH]c2ccccc12)NC(=O)[C@H](CCCCN)NC(=O)[C@@H](NC(=O)[C@H](Cc1ccccc1)NC(=O)[C@H](CCC(=O)O)NC(=O)[C@H](C)NC(=O)[C@H](CCC(N)=O)NC(=O)[C@H](C)NC(=O)[C@H](CCC(N)=O)NC(=O)[C@H](CCCCN)NC(=O)[C@H](CC(=O)O)NC(=O)[C@H](CC(C)C)NC(=O)[C@H](Cc1ccc(O)cc1)NC(=O)[C@H](CCCCN)NC(=O)C(C)(C)NC(=O)[C@H](Cc1ccc(O)cc1)NC(=O)[C@H](CC(=O)O)NC(=O)[C@H](CO)NC(=O)[C@@H](NC(=O)[C@](C)(Cc1ccccc1)NC(=O)[C@@H](NC(=O)CNC(=O)[C@H](CCC(=O)O)NC(=O)C(C)(C)NC(=O)[C@@H](N)Cc1ccc(O)cc1)[C@@H](C)O)[C@@H](C)O)C(C)C)C(=O)N[C@@H](CCCCN)C(=O)NCC(=O)NCC(=O)N1CCC[C@H]1C(=O)N[C@@H](CO)C(=O)N[C@@H](CO)C(=O)NCC(=O)N[C@@H](C)C(=O)N1CCC[C@H]1C(=O)N1CCC[C@H]1C(=O)N1CCC[C@H]1C(=O)N[C@@H](CO)C(=O)N[C@@H](CCCCN)C(N)=O [Example 24] (H-Y[Aib]EGT[αMeF]TSDY[Aib]KYLDKQAQAEFVKWLLKGGPSSGAPPPSK-NH2) | 54.18% | −11.1
CC(C)C[C@H](NC(=O)[C@H](CC(C)C)NC(=O)[C@H](Cc1c[nH]c2ccccc12)NC(=O)[C@H](CCCCN)NC(=O)[C@@H](NC(=O)[C@H](Cc1ccccc1)NC(=O)[C@H](CCC(=O)O)NC(=O)[C@H](CCC(N)=O)NC(=O)[C@H](CCC(N)=O)NC(=O)[C@H](C)NC(=O)[C@H](CCC(N)=O)NC(=O)[C@H](CCCCN)NC(=O)[C@H](CC(=O)O)NC(=O)[C@H](CC(C)C)NC(=O)[C@H](Cc1ccc(O)cc1)NC(=O)[C@H](CCCCN)NC(=O)C(C)(C)NC(=O)[C@H](Cc1ccc(O)cc1)NC(=O)[C@H](CC(=O)O)NC(=O)[C@H](CO)NC(=O)[C@@H](NC(=O)[C@](C)(Cc1ccccc1)NC(=O)[C@@H](NC(=O)CNC(=O)[C@H](CCC(=O)O)NC(=O)C(C)(C)NC(=O)[C@@H](N)Cc1ccc(O)cc1)[C@@H](C)O)[C@@H](C)O)C(C)C)C(=O)N[C@@H](CCCCN)C(=O)NCC(=O)NCC(=O)N1CCC[C@H]1C(=O)N[C@@H](CO)C(=O)N[C@@H](CO)C(=O)NCC(=O)N[C@@H](C)C(=O)N1CCC[C@H]1C(=O)N1CCC[C@H]1C(=O)N1CCC[C@H]1C(=O)N[C@@H](CO)C(N)=O [Example 26] (H-Y[Aib]EGT[αMeF]TSDY[Aib]KYLDKQAQQEFVKWLLKGGPSSGAPPPS-NH2) | 53.06% | −16.2
CC[C@H](C)[C@H](NC(=O)[C@H](C)NC(=O)[C@H](Cc1ccc(O)cc1)NC(=O)[C@H](CC(=O)O)NC(=O)[C@H](CO)NC(=O)[C@@H](NC(=O)[C@](C)(Cc1ccccc1)NC(=O)[C@@H](NC(=O)CNC(=O)[C@H](CCC(=O)O)NC(=O)C(C)(C)NC(=O)[C@@H](N)Cc1ccc(O)cc1)[C@@H](C)O)[C@@H](C)O)C(=O)NC(C)(C)C(=O)N[C@@H](CC(C)C)C(=O)N[C@@H](CC(=O)O)C(=O)N[C@@H](CCCCN)C(=O)N[C@@H](CCC(N)=O)C(=O)N[C@@H](C)C(=O)N[C@@H](CCC(N)=O)C(=O)N[C@@H](C)C(=O)N[C@@H](CCC(=O)O)C(=O)N[C@@H](Cc1ccccc1)C(=O)N[C@H](C(=O)N[C@@H](CCCCN)C(=O)N[C@@H](Cc1c[nH]c2ccccc12)C(=O)N[C@@H](CC(C)C)C(=O)N[C@@H](CC(C)C)C(=O)N[C@@H](CCCCN)C(=O)NCC(=O)NCC(=O)N1CCC[C@H]1C(=O)N[C@@H](CO)C(=O)N[C@@H](CO)C(=O)NCC(=O)N[C@@H](C)C(=O)N1CCC[C@H]1C(=O)N1CCC[C@H]1C(=O)N1CCC[C@H]1C(=O)N[C@@H](CO)C(=O)N[C@@H](CCCCN)C(N)=O)C(C)C [Example 1] (H-Y[Aib]EGT[αMeF]TSDYAI[Aib]LDKQAQAEFVKWLLKGGPSSGAPPPSK-NH2) | 42.68% | 
CC[C@H](C)[C@H](NC(=O)[C@H](C)NC(=O)[C@H](Cc1ccc(O)cc1)NC(=O)[C@H](CC(=O)O)NC(=O)[C@H](CO)NC(=O)[C@@H](NC(=O)[C@](C)(Cc1ccccc1)NC(=O)[C@@H](NC(=O)CNC(=O)[C@H](CCC(=O)O)NC(=O)C(C)(C)NC(=O)[C@@H](N)Cc1ccc(O)cc1)[C@@H](C)O)[C@@H](C)O)C(=O)NC(C)(C)C(=O)N[C@@H](CC(C)C)C(=O)N[C@@H](CC(=O)O)C(=O)N[C@@H](CCCCN)C(=O)N[C@@H](CCC(N)=O)C(=O)N[C@@H](C)C(=O)N[C@@H](CCC(N)=O)C(=O)N[C@@H](C)C(=O)N[C@@H](CCC(=O)O)C(=O)N[C@@H](Cc1ccccc1)C(=O)N[C@H](C(=O)N[C@@H](CCCCN)C(=O)N[C@@H](Cc1c[nH]c2ccccc12)C(=O)N[C@@H](CC(C)C)C(=O)N[C@@H](CC(C)C)C(=O)N[C@@H](CCCCN)C(=O)NCC(=O)NCC(=O)N1CCC[C@H]1C(=O)N[C@@H](CO)C(=O)N[C@@H](CO)C(=O)NCC(=O)N[C@@H](C)C(=O)N1CCC[C@H]1C(=O)N1CCC[C@H]1C(=O)N1CCC[C@H]1C(=O)N[C@@H](CO)C(N)=O)C(C)C [Example 5] (H-Y[Aib]EGT[αMeF]TSDYAI[Aib]LDKQAQAEFVKWLLKGGPSSGAPPPS-NH2) | 60.99% | 
CC(C)C[C@H](NC(=O)[C@H](CC(C)C)NC(=O)[C@H](Cc1c[nH]c2ccccc12)NC(=O)[C@H](CCCCN)NC(=O)[C@@H](NC(=O)[C@H](Cc1ccccc1)NC(=O)[C@H](CCC(=O)O)NC(=O)[C@H](C)NC(=O)[C@H](CCC(N)=O)NC(=O)[C@H](C)NC(=O)[C@H](CCC(N)=O)NC(=O)[C@H](CCCCN)NC(=O)[C@H](CC(=O)O)NC(=O)[C@H](CC(C)C)NC(=O)C(C)(C)NC(=O)[C@H](C)NC(=O)C(C)(C)NC(=O)[C@H](Cc1ccc(O)cc1)NC(=O)[C@H](CC(=O)O)NC(=O)[C@H](CO)NC(=O)[C@@H](NC(=O)[C@](C)(Cc1ccccc1)NC(=O)[C@@H](NC(=O)CNC(=O)[C@H](CCC(=O)O)NC(=O)C(C)(C)NC(=O)[C@@H](N)Cc1ccc(O)cc1)[C@@H](C)O)[C@@H](C)O)C(C)C)C(=O)N[C@@H](CCCCN)C(=O)NCC(=O)NCC(=O)N1CCC[C@H]1C(=O)N[C@@H](CO)C(=O)N[C@@H](CO)C(=O)NCC(=O)N[C@@H](C)C(=O)N1CCC[C@H]1C(=O)N1CCC[C@H]1C(=O)N1CCC[C@H]1C(=O)N[C@@H](CO)C(=O)N[C@@H](CCCCN)C(N)=O [Example 10] (H-Y[Aib]EGT[αMeF]TSDY[Aib]A[Aib]LDKQAQAEFVKWLLKGGPSSGAPPPSK-NH2) | 62.04% | 
